{"source": "PubChem BioAssay AID270", "about": "(DTP/NCI, 2004)", "test_system": "BDF1 mice, s.c. Lewis lung carcinoma, T/C %", "assay": "NCI In Vivo Anticancer Drug Screen. Data for tumor model Lewis Lung Carcinoma (subcutaneous) in B6D2F1 (BDF1) mice", "procedure": "The antitumor activity of compounds was measured in mice bearing transplantable tumors. Survival or tumor size were measured and the results are expressed as the measurement made in the treated group (T) divided by the measurement made in the vehicle treated control group (C). The tumor model used in this assay is Lewis Lung Carcinoma (subcutaneous) in B6D2F1 (BDF1) mice", "key": {"[1]": {"conditions": "endpoint: mean tumor weight, dose: 400.0 mg/kg/injection, schedule: Q01DX011 (ip), vehicle: saline, higher = larger tumour"}}, "note": "“And” between values parts separate entries of the source, which are not always exact repeats. Equal values may be shown once. Inconclusive results are not listed.", "data": [{"smiles": "COC1=NCN=C2SC=C(N)N=C12", "values": [{"measurement": "T/C", "setting": "endpoint: median survival time, dose: 12.5 mg/kg/injection, schedule: Q01DX009 (ip), vehicle: saline, higher = longer survival", "result": "107 % of control"}, {"measurement": "T/C", "setting": "endpoint: median survival time, dose: 25.0 mg/kg/injection, schedule: Q01DX009 (ip), vehicle: saline, higher = longer survival", "result": "122 % of control"}, {"measurement": "T/C", "setting": "endpoint: median survival time, dose: 50.0 mg/kg/injection, schedule: Q01DX009 (ip), vehicle: saline, higher = longer survival", "result": "110 % of control"}]}, {"smiles": "CN1c2c(nc(N)[nH]c2=O)NCC1CCNc1ccc(C(=O)NC(CCC(=O)O)C(=O)O)cc1", "note": "(centres undefined)", "values": [{"measurement": "T/C", "setting": "endpoint: median survival time, dose: 268.0 mg/kg/injection, schedule: Q01DX009 (ip), vehicle: saline, higher = longer survival", "result": "120 % of control"}, {"measurement": "T/C", "setting": "endpoint: median survival time, dose: 400.0 mg/kg/injection, schedule: Q01DX009 (ip), vehicle: saline, higher = longer survival", "result": "116 % of control"}, {"measurement": "T/C", "setting": "endpoint: median survival time, dose: 400.0 mg/kg/injection, schedule: Q04DX003 (ip), vehicle: saline, higher = longer survival", "result": "103 % of control"}, {"measurement": "T/C", "setting": "endpoint: median survival time, dose: 600.0 mg/kg/injection, schedule: Q04DX003 (ip), vehicle: saline, higher = longer survival", "result": "116 % of control"}, {"measurement": "T/C", "setting": "endpoint: median survival time, dose: 800.0 mg/kg/injection, schedule: Q01DX001 (ip), vehicle: saline, higher = longer survival", "result": "98 % of control"}, {"measurement": "T/C", "setting": "endpoint: median survival time, dose: 900.0 mg/kg/injection, schedule: Q04DX003 (ip), vehicle: saline, higher = longer survival", "result": "106 % of control"}, {"measurement": "T/C", "setting": "endpoint: median survival time, dose: 1200.0 mg/kg/injection, schedule: Q01DX001 (ip), vehicle: saline, higher = longer survival", "result": "103 % of control"}, {"measurement": "T/C", "setting": "endpoint: median survival time, dose: 1800.0 mg/kg/injection, schedule: Q01DX001 (ip), vehicle: saline, higher = longer survival", "result": "110 % of control"}]}, {"smiles": "CCOC(=O)NC", "values": [{"measurement": "T/C", "setting": "endpoint: mean tumor weight, dose: 177.0 mg/kg/injection, schedule: Q01DX011 (ip), vehicle: saline, higher = larger tumour", "result": "87 % of control"}, {"measurement": "T/C", "setting": "endpoint: mean tumor weight, dose: 266.0 mg/kg/injection, schedule: Q01DX011 (ip), vehicle: saline, higher = larger tumour", "result": "83 % of control"}, {"measurement": "T/C", "setting": "[1]", "result": "62 % of control"}, {"measurement": "T/C", "setting": "endpoint: mean tumor weight, dose: 600.0 mg/kg/injection, schedule: Q01DX011 (ip), vehicle: saline, higher = larger tumour", "result": "44 % of control"}]}, {"smiles": "O=S(=O)(Cl)c1cc(Cl)c(Cl)cc1Cl", "values": [{"measurement": "T/C", "setting": "endpoint: mean tumor weight, dose: 133.0 mg/kg/injection, schedule: Q01DX011 (ip), vehicle: other, higher = larger tumour", "result": "71 % of control"}, {"measurement": "T/C", "setting": "endpoint: mean tumor weight, dose: 300.0 mg/kg/injection, schedule: Q01DX011 (ip), vehicle: other, higher = larger tumour", "result": "83 % of control"}, {"measurement": "T/C", "setting": "endpoint: mean tumor weight, dose: 450.0 mg/kg/injection, schedule: Q01DX011 (ip), vehicle: other, higher = larger tumour", "result": "28 % of control and 41 % of control"}, {"measurement": "T/C", "setting": "endpoint: mean tumor weight, dose: 600.0 mg/kg/injection, schedule: Q01DX011 (ip), vehicle: other, higher = larger tumour", "result": "75 % of control"}]}, {"smiles": "O=NN(CCCl)C(=O)NCC1CCC(CNC(=O)N(CCCl)N=O)CC1", "note": "(centres undefined)", "values": [{"measurement": "T/C", "setting": "endpoint: mean tumor weight, dose: 400.0 mg/kg/injection, schedule: Q01DX001 (ip), vehicle: carboxymethylcellulose (CMC), higher = larger tumour", "result": "50 % of control"}, {"measurement": "T/C", "setting": "endpoint: mean tumor weight, dose: 600.0 mg/kg/injection, schedule: Q01DX001 (ip), vehicle: carboxymethylcellulose (CMC), higher = larger tumour", "result": "36 % of control"}, {"measurement": "T/C", "setting": "endpoint: median survival time, dose: 3.12 mg/kg/injection, schedule: Q01DX009 (ip), vehicle: Klucel (hydroxypropylcellulose) (HPC), higher = longer survival", "result": "92 % of control"}, {"measurement": "T/C", "setting": "endpoint: median survival time, dose: 6.25 mg/kg/injection, schedule: Q01DX009 (ip), vehicle: Klucel (hydroxypropylcellulose) (HPC), higher = longer survival", "result": "93 % of control"}, {"measurement": "T/C", "setting": "endpoint: median survival time, dose: 12.5 mg/kg/injection, schedule: Q01DX009 (ip), vehicle: Klucel (hydroxypropylcellulose) (HPC), higher = longer survival", "result": "98 % of control"}, {"measurement": "T/C", "setting": "endpoint: median survival time, dose: 25.0 mg/kg/injection, schedule: Q01DX009 (ip), vehicle: Klucel (hydroxypropylcellulose) (HPC), higher = longer survival", "result": "100 % of control"}]}, {"smiles": "Nc1ncnc2c1ncn2C1OC(CO)C(O)C1O", "note": "(centres undefined)", "values": [{"measurement": "T/C", "setting": "endpoint: mean tumor weight, dose: 50.0 mg/kg/injection, schedule: Q01DX011 (ip), vehicle: saline, higher = larger tumour", "result": "108 % of control"}, {"measurement": "T/C", "setting": "endpoint: mean tumor weight, dose: 100.0 mg/kg/injection, schedule: Q01DX011 (ip), vehicle: saline, higher = larger tumour", "result": "103 % of control"}, {"measurement": "T/C", "setting": "endpoint: mean tumor weight, dose: 200.0 mg/kg/injection, schedule: Q01DX011 (ip), vehicle: saline, higher = larger tumour", "result": "102 % of control"}, {"measurement": "T/C", "setting": "[1]", "result": "93 % of control"}, {"measurement": "T/C", "setting": "endpoint: median survival time, dose: 70.0 mg/kg/injection, schedule: Q03HX024 (ip), vehicle: saline with Tween-80, higher = longer survival", "result": "94 % of control"}, {"measurement": "T/C", "setting": "endpoint: median survival time, dose: 80.0 mg/kg/injection, schedule: Q03HX024 (ip), vehicle: saline with Tween-80, higher = longer survival", "result": "98 % of control"}, {"measurement": "T/C", "setting": "endpoint: median survival time, dose: 160.0 mg/kg/injection, schedule: Q03HX024 (ip), vehicle: saline with Tween-80, higher = longer survival", "result": "104 % of control"}, {"measurement": "T/C", "setting": "endpoint: median survival time, dose: 240.0 mg/kg/injection, schedule: Q03HX024 (ip), vehicle: saline with Tween-80, higher = longer survival", "result": "86 % of control"}]}, {"smiles": "CC1(C)N=C(N)N=C(N)N1c1cccc(Br)c1", "values": [{"measurement": "T/C", "setting": "endpoint: mean tumor weight, dose: 50.0 mg/kg/injection, schedule: Q01DX011 (ip), vehicle: other, higher = larger tumour", "result": "16 % of control"}]}]}
